Measurements: patent publication US20250345446A1 (Draupnir Bio ApS, priority 2022, published 2025)

What follows are compounds tested against T1, soluble ectodomain of sortilin-6his (Homo sapiens, UniProt Q99523, V650M) (assay: MST binding to soluble ectodomain of sortilin-6his). Settings: Table 4; small molecule bifunctional compounds; MST; read-out: KD score, binding to sortilin (Kd).
T1 construct: the soluble ectodomain of sortilin-6his is measured by microscale thermophoresis (MST)
T1 sequence (Q99523 with tags, fused parts or gaps V650M): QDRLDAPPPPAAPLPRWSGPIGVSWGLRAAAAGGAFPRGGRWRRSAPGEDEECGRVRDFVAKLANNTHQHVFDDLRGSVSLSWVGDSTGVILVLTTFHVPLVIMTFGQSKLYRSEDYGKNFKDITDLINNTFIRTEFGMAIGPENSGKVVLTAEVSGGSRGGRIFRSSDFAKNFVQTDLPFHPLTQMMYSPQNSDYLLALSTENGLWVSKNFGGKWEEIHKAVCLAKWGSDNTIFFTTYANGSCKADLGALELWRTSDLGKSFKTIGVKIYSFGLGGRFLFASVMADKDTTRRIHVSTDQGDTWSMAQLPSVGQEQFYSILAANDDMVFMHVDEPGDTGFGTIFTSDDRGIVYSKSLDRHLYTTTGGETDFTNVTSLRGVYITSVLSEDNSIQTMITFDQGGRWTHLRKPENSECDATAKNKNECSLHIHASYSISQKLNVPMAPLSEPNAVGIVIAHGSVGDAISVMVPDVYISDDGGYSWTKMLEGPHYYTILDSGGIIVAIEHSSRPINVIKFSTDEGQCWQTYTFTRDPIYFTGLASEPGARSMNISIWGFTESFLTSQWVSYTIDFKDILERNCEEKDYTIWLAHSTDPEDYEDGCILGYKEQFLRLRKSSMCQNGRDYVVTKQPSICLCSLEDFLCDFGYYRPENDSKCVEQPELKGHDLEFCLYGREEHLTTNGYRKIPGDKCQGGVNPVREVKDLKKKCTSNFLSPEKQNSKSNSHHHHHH
Procedure: At this point the plate was sealed with adhesive strip and placed on an Eppendorf thermomixer to shake at 600 rpm for 3 min before spinning on a Fisherbrand plate-spinner for 15 seconds and further incubation 1 hrs at 19° C. MST was measured on a Monolith NT. Automated (Nanotemper) in standard-treated capillaries at 5% LED-power and high MST-power. Dose-response was extracted from the raw thermographs at 20 sec hot-time and the dissociation constant was estimated by sigmoidal curve fitting in MO. Affinity analysis program (Nanotemper). All experiments were run in duplicates.
With `CC(C)(C)CC[C@H](NC(=O)c1ccc(Oc2cccc(C(=O)NCCOCCOCCOCc3ccc(-c4cccc5ccncc45)c(OCCc4ccc(-c5cccc6ccncc56)cc4)c3)c2)nc1)C(=O)O` [BF033, (2S)-2-[[6-[3-[2-[2-[2-[[4-(8-isoquinolyl)-3-[2-[4-(8-isoquinolyl)phenyl]ethoxy]phenyl]methoxy]ethoxy]ethoxy]ethylcarbamoyl]phenoxy]pyridine-3-carbonyl]amino]-5,5-dimethyl-hexanoic acid] the Kd was under 1 nM.
`CC(C)(C)CC[C@H](NC(=O)c1ccc(Oc2cccc(C(=O)NCCOCCOCCOCCOCc3ccc(-c4cccc5ccncc45)c(OCCc4ccc(-c5cccc6ccncc56)cc4)c3)c2)nc1)C(=O)O` [BF035, (2S)-2-[[6-[3-[2-[2-[2-[2-[[4-(8-isoquinolyl)-3-[2-[4-(8-isoquinolyl)phenyl]ethoxy]phenyl]methoxy]ethoxy]ethoxy]ethoxy]ethylcarbamoyl]phenoxy]pyridine-3-carbonyl]amino]-5,5-dimethyl-hexanoic acid] showed a Kd of 1 to 10 nM.
`C[C@@H]1CN(c2ncc(-c3ccc4c(n3)N(Cc3cccnc3C#N)C(C)(C)C4=O)cn2)CCN1C(=O)COCCCCCCNC(=O)COc1cccc(Oc2ccc(C(=O)N[C@@H](CCC(C)(C)C)C(=O)O)cn2)c1` [BF036] gave a Kd of 1 to 10 nM.
`CC(C)(C)CC[C@H](NC(=O)c1ccc(Oc2cccc(C(=O)NCCOCCOCCOCCOCCOCc3ccc(-c4cccc5ccncc45)c(OCCc4ccc(-c5cccc6ccncc56)cc4)c3)c2)nc1)C(=O)O` [BF037, (2S)-2-[[6-[3-[2-[2-[2-[2-[2-[[4-(8-isoquinolyl)-3-[2-[4-(8-isoquinolyl)phenyl]ethoxy]phenyl]methoxy]ethoxy]ethoxy]ethoxy]ethoxy]ethylcarbamoyl]phenoxy]pyridine-3-carbonyl]amino]-5,5-dimethyl-hexanoic acid] was tested, and the Kd was under 1 nM.
Work on `C[C@@H]1CN(c2ncc(-c3ccc4c(n3)N(Cc3cccnc3C#N)C(C)(C)C4=O)cn2)CCN1C(=O)COCCCCCCCCNc1cccc(Oc2ccc(C(=O)N[C@@H](CCC(C)(C)C)C(=O)O)cn2)c1` [BF038] yielded a Kd of over 250 nM.
Work on `C[C@@H]1CN(c2ncc(-c3ccc4c(n3)N(Cc3cccnc3C#N)C(C)(C)C4=O)cn2)CCN1C(=O)COCCCCCCNc1cccc(Oc2ccc(C(=O)N[C@@H](CCC(C)(C)C)C(=O)O)cn2)c1` [BF039] yielded a Kd of 1 to 10 nM.
`C[C@@H]1CN(c2ncc(-c3ccc4c(n3)N(Cc3cccnc3C#N)C(C)(C)C4=O)cn2)CCN1C(=O)COCCCCCCCCNC(=O)c1cccc(Oc2ccc(C(=O)N[C@@H](CCC(C)(C)C)C(=O)O)cn2)c1` [BF041] gave a Kd of under 1 nM.
Work on `CC(C)(C)CC[C@H](NC(=O)c1ccc(Oc2cccc(C(=O)NCCOCCOCCOCCOCCOCCOCc3ccc(-c4cccc5ccncc45)c(OCCc4ccc(-c5cccc6ccncc56)cc4)c3)c2)nc1)C(=O)O` [BF044, (2S)-2-[[6-[3-[2-[2-[2-[2-[2-[2-[[4-(8-isoquinolyl)-3-[2-[4-(8-isoquinolyl)phenyl]ethoxy]phenyl]methoxy]ethoxy]ethoxy]ethoxy]ethoxy]ethoxy]ethylcarbamoyl]phenoxy]pyridine-3-carbonyl]amino]-5,5-dimethyl-hexanoic acid] yielded a Kd of 10 to 250 nM.
`C[C@@H]1CN(c2ncc(-c3ccc4c(n3)N(Cc3cccnc3C#N)C(C)(C)C4=O)cn2)CCN1C(=O)COCCCCNC(=O)c1cccc(Oc2ccc(C(=O)N[C@@H](CCC(C)(C)C)C(=O)O)cn2)c1` [BF045] showed a Kd of 1 to 10 nM.
Compound `C[C@@H]1CN(c2ncc(-c3ccc4c(n3)N(Cc3cccnc3C#N)C(C)(C)C4=O)cn2)CCN1C(=O)COCCCCNc1cccc(Oc2ccc(C(=O)N[C@@H](CCC(C)(C)C)C(=O)O)cn2)c1` [BF046] has a Kd of under 1 nM.
With `C[C@@H]1CN(c2ncc(-c3ccc4c(n3)N(Cc3cccnc3C#N)C(C)(C)C4=O)cn2)CCN1C(=O)COCCNc1cccc(Oc2ccc(C(=O)N[C@@H](CCC(C)(C)C)C(=O)O)cn2)c1` [BF047, (S)-2-(6-(3-((2-(2-((R)-4-(5-(1-((2-cyanopyridin-3-yl)methyl)-2,2-dimethyl-3-oxo-2,3-dihydro-1H-pyrrolo[2,3-b]pyridin-6-yl)pyrimidin-2-yl)-2-methylpiperazin-1-yl)-2-oxoethoxy)ethyl)amino)phenoxy)nicotinamido)-5,5-dimethylhexanoic acid] the Kd was 1 to 10 nM.
Work on `C[C@@H]1CN(c2ncc(-c3ccc4c(n3)N(Cc3cccnc3C#N)C(C)(C)C4=O)cn2)CCN1C(=O)COCCCCNC(=O)COc1cccc(Oc2ccc(C(=O)N[C@@H](CCC(C)(C)C)C(=O)O)cn2)c1` [BF048] yielded a Kd of 1 to 10 nM.
Work on `CC(C)(C)CC[C@H](NC(=O)c1ccc(Oc2cccc(C(=O)NCCOCCOCCNc3ncc(-c4ccc5c(n4)N(Cc4cccnc4C#N)C(C)(C)C5=O)cn3)c2)nc1)C(=O)O` [BF049, (2S)-2-[[6-[3-[2-[2-[2-[[5-[1-[(2-cyano-3-pyridyl)methyl]-2,2-dimethyl-3-oxo-pyrrolo[2,3-b]pyridin-6-yl]pyrimidin-2-yl]amino]ethoxy]ethoxy]ethylcarbamoyl]phenoxy]pyridine-3-carbonyl]amino]-5,5-dimethyl-hexanoic acid] yielded a Kd of 1 to 10 nM.
In the case of `C[C@@H]1CN(c2ncc(-c3ccc4c(n3)N(Cc3cccnc3C#N)C(C)(C)C4=O)cn2)CCN1C(=O)COCCOCCNC(=O)c1cccc(Oc2ccc(C(=O)N[C@@H](CCC(C)(C)C)C(=O)O)cn2)c1` [BF051, (2S)-2-[[6-[3-[2-[2-[2-[(2R)-4-[5-[1-[(2-cyano-3-pyridyl)methyl]-2,2-dimethyl-3-oxo-pyrrolo[2,3-b]pyridin-6-yl]pyrimidin-2-yl]-2-methyl-piperazin-1-yl]-2-oxo-ethoxy]ethoxy]ethylcarbamoyl]phenoxy]pyridine-3-carbonyl]amino]-5,5-dimethyl-hexanoic acid], the Kd is reported as 1 to 10 nM.
Compound `CC(C)(C)CC[C@H](NC(=O)c1ccc(Oc2cccc(C(=O)NCCOCCOCCOCCOCCOc3ncc(-c4ccc5c(n4)N(Cc4cccnc4C#N)C(C)(C)C5=O)cn3)c2)nc1)C(=O)O` [BF052] has a Kd of 1 to 10 nM.
With `CC(C)(C)CC[C@H](NC(=O)c1ccc(Oc2cccc(C(=O)NCCOCCOc3ncc(-c4ccc5c(n4)N(Cc4cccnc4C#N)C(C)(C)C5=O)cn3)c2)nc1)C(=O)O` [BF053] the Kd was 1 to 10 nM.
Work on `CC(C)(C)CC[C@H](NC(=O)c1ccc(Oc2cccc(C(=O)NCCOCCOCCOCCOc3ncc(-c4ccc5c(n4)N(Cc4cccnc4C#N)C(C)(C)C5=O)cn3)c2)nc1)C(=O)O` [BF054] yielded a Kd of 1 to 10 nM.
`C[C@@H]1CN(c2ncc(-c3ccc4c(n3)N(Cc3cccnc3C#N)C(C)(C)C4=O)cn2)CCN1C(=O)COCCOCCOCCNC(=O)c1cccc(Oc2ccc(C(=O)N[C@@H](CCC(C)(C)C)C(=O)O)cn2)c1` [BF056, (2S)-2-[[6-[3-[2-[2-[2-[2-[(2R)-4-[5-[1-[(2-cyano-3-pyridyl)methyl]-2,2-dimethyl-3-oxo-pyrrolo[2,3-b]pyridin-6-yl]pyrimidin-2-yl]-2-methyl-piperazin-1-yl]-2-oxo-ethoxy]ethoxy]ethoxy]ethylcarbamoyl]phenoxy]pyridine-3-carbonyl]amino]-5,5-dimethyl-hexanoic acid] was tested, and the Kd was 10 to 250 nM.
Compound `C[C@@H]1CN(c2ncc(-c3ccc4c(n3)N(Cc3cccnc3C#N)C(C)(C)C4=O)cn2)CCN1C(=O)COCCNC(=O)c1cccc(Oc2ccc(C(=O)N[C@@H](CCC(C)(C)C)C(=O)O)cn2)c1` [BF058, (S)-2-(6-(3-((2-(2-((R)-4-(5-(1-((2-cyanopyridin-3-yl)methyl)-2,2-dimethyl-3-oxo-2,3-dihydro-1H-pyrrolo[2,3-b]pyridin-6-yl)pyrimidin-2-yl)-2-methylpiperazin-1-yl)-2-oxoethoxy)ethyl)carbamoyl)phenoxy)nicotinamido)-5,5-dimethyl hexanoic acid] has a Kd of 1 to 10 nM.
For `CC(C)(C)CC[C@H](NC(=O)c1ccc(Oc2cccc(C(=O)NCCOCCOCCOCCOCCOCCOc3ncc(-c4ccc5c(n4)N(Cc4cccnc4C#N)C(C)(C)C5=O)cn3)c2)nc1)C(=O)O` [BF059], the Kd was under 1 nM.
Compound `CC(C)(C)CC[C@H](NC(=O)c1ccc(Oc2cccc(C(=O)NCCOCCNc3ncc(-c4ccc5c(n4)N(Cc4cccnc4C#N)C(C)(C)C5=O)cn3)c2)nc1)C(=O)O` [BF060, (2S)-2-[[6-[3-[2-[2-[[5-[1-[(2-cyano-3-pyridyl)methyl]-2,2-dimethyl-3-oxo-pyrrolo[2,3-b]pyridin-6-yl]pyrimidin-2-yl]amino]ethoxy]ethylcarbamoyl]phenoxy]pyridine-3-carbonyl]amino]-5,5-dimethyl-hexanoic acid] has a Kd of 1 to 10 nM.
`CC(C)(C)CC[C@H](NC(=O)c1ccc(Oc2cccc(C(=O)NCCOCCOCCOCCOCCNc3ncc(-c4ccc5c(n4)N(Cc4cccnc4C#N)C(C)(C)C5=O)cn3)c2)nc1)C(=O)O` [BF062, (2S)-2-[[6-[3-[2-[2-[2-[2-[2-[[5-[1-[(2-cyano-3-pyridyl)methyl]-2,2-dimethyl-3-oxo-pyrrolo[2,3-b]pyridin-6-yl]pyrimidin-2-yl]amino]ethoxy]ethoxy]ethoxy]ethoxy]ethylcarbamoyl]phenoxy]pyridine-3-carbonyl]amino]-5,5-dimethyl-hexanoic acid] showed a Kd of 1 to 10 nM.
With `C[C@@H]1CN(c2ncc(-c3ccc4c(n3)N(Cc3cccnc3C#N)C(C)(C)C4=O)cn2)CCN1C(=O)COCCNC(=O)COc1cccc(Oc2ccc(C(=O)N[C@@H](CCC(C)(C)C)C(=O)O)cn2)c1` [BF064, (S)-2-(6-(3-(2-((8-(2-((R)-4-(5-(1-((2-cyanopyridin-3-yl)methyl)-2,2-dimethyl-3-oxo-2,3-dihydro-1H-pyrrolo[2,3-b]pyridin-6-yl)pyrimidin-2-yl)-2-methylpiperazin-1-yl)-2-oxoethoxy)methyl)amino)-2-oxoethoxy)phenoxy)nicotinamido)-5,5-dimethylhexanoic acid] the Kd was 1 to 10 nM.
`CC(C)(C)CC[C@H](NC(=O)c1ccc(Oc2cccc(C(=O)NCCOCCOCCOCCOCCOCCNc3ncc(-c4ccc5c(n4)N(Cc4cccnc4C#N)C(C)(C)C5=O)cn3)c2)nc1)C(=O)O` [BF067, (2S)-2-[[6-[3-[2-[2-[2-[2-[2-[2-[[5-[1-[(2-cyano-3-pyridyl)methyl]-2,2-dimethyl-3-oxo-pyrrolo[2,3-b]pyridin-6-yl]pyrimidin-2-yl]amino]ethoxy]ethoxy]ethoxy]ethoxy]ethoxy]ethylcarbamoyl]phenoxy]pyridine-3-carbonyl]amino]-5,5-dimethyl-hexanoic acid] gave a Kd of under 1 nM.
